Earlier results as cited in patent US20250009787A1, “Nitric Oxide Containing Foam Formulation for Topical Medical Use” (NOxy Health Products, Inc., priority 2023, published 2025).

What was measured:
[1] = reported to be toxic at higher concentration
leg abscesses = conditions: 200 ppm NO gas, average of 8.1 hours, 14 consecutive nights

Nitric oxide [NO gas]
toxic concentration (exposure) [1]: > 200 ppm | lesion size (leg abscesses): significantly reduced in size
